In brackets after ≈: the same amount, converted by molar mass.

For experiment [1], the system named is vancomycin-susceptible enterococci. Put plainly: broth micro-dilution, mean geometric MIC. Conditions: enterococci, 24-hour incubation. Type of experiment: cell-based, Enterococcus faecium and Enterococcus faecalis. Background: Broth dilution looks for growth in wells or tubes with falling amounts of substance.
For experiment [2], the system named is vancomycin-resistant enterococci. Put plainly: broth micro-dilution, mean geometric MIC. Type of experiment: cell-based, Enterococcus faecium and Enterococcus faecalis. The following applies: enterococci, 24-hour incubation.
For experiment [3], the system named is Haemophilus influenzae RD. The experiment is described as follows: broth micro-dilution MIC. Conditions: Haemophilus influenzae RD. Type of experiment: cell-based. The procedure:
(§1) The formula I compounds have in vitro and in vivo activity against Gram-positive pathogenic bacteria. The MIC's were determined using a standard broth micro-dilution assay.

Experiment [4] has as its system Entercoccus faecium 2041. Put plainly: broth micro-dilution MIC. Conditions: Entercoccus faecium 2041. Type of experiment: cell-based. As to the method: as §1
In experiment [5] the test system is Staphylococcus haemolyticus 105. Put plainly: broth micro-dilution MIC. It is filed as cell-based. As to the method: as §1
Experiment [6] deals with Entercoccus faecium 180. The experiment is described as follows: broth micro-dilution MIC. It is filed as cell-based. The following applies: Entercoccus faecium 180. As to the method:
as §1

In experiment [7] the test system is Staphylococcus haemolyticus 415. The experiment is described as follows: broth micro-dilution MIC. Type of experiment: cell-based. The procedure: as §1
In experiment [8] the test system is Staphylococcus epidermidis 270. The experiment is described as follows: broth micro-dilution MIC. Type of experiment: cell-based. As to the method:
as §1

Experiment [9] deals with Enterococcus gallinarum 245. The experiment is described as follows: broth micro-dilution MIC. It is filed as cell-based. Conditions: Enterococcus gallinarum 245. The procedure:
as §1

Experiment [10] has as its system Staphylococcus aureus 447. Put plainly: broth micro-dilution MIC. Type of experiment: cell-based. As to the method:
(§2) The MIC's were determined using a standard broth micro-dilution assay.

In experiment [11] the test system is Staphylococcus aureus X400. Put plainly: broth micro-dilution MIC. Type of experiment: cell-based. The procedure: as §2
Experiment [12] relates to Staphylococcus aureus 446. The experiment is described as follows: broth micro-dilution MIC. It is filed as cell-based. As to the method: as §2
Experiment [13] relates to Entercoccus faecium 276. The experiment is described as follows: broth micro-dilution MIC. Type of experiment: cell-based. As to the method:
as §2

Experiment [14] relates to Entercoccus faecium 180-1. The experiment is described as follows: broth micro-dilution MIC. Type of experiment: cell-based. The procedure: as §2
For experiment [15], the system named is Staphylococcus aureus X778. The experiment is described as follows: broth micro-dilution MIC. It is filed as cell-based. As to the method:
as §2

Experiment [16] has as its system Staphylococcus aureus SA1199. The experiment is described as follows: broth micro-dilution MIC. It is filed as cell-based. As to the method: as §2
The subject of experiment [17] is Staphylococcus aureus 489. The experiment is described as follows: broth micro-dilution MIC. Type of experiment: cell-based. As to the method:
as §2

Experiment [18] deals with Staphylococcus aureus 491. The experiment is described as follows: broth micro-dilution MIC. It is filed as cell-based. As to the method:
as §2

In experiment [19] the test system is Staphylococcus aureus SA1199B. Type of experiment: cell-based. The procedure: as §2
Experiment [20] relates to Staphylococcus aureus S13E. It is filed as cell-based. As to the method: as §2
Experiment [21] deals with Streptococcus pneumoniae P1. The experiment is described as follows: broth micro-dilution MIC. It is filed as cell-based. As to the method:
as §1

In experiment [22] the test system is Staphylococcus aureus SA1199A. The experiment is described as follows: broth micro-dilution MIC. It is filed as cell-based. The procedure: as §2
Experiment [23] relates to Streptococcus pyogenes C203. Put plainly: broth micro-dilution MIC. It is filed as cell-based. The procedure: as §2

Turning to `CNC(CC(C)C)C(=O)NC1C(=O)NC(CC(N)=O)C(=O)NC2C(=O)NC3C(=O)NC(C(=O)NC(C(=O)O)c4cc(O)cc(O)c4-c4cc3ccc4O)C(OC3CC(C)(N)C(O)C(C)O3)c3ccc(c(Cl)c3)Oc3cc2cc(c3OC2OC(CO)C(O)C(O)C2OC2CC(C)(NCCCCCCCCc3ccccc3)C(O)C(C)O2)Oc2ccc(cc2Cl)C1O` (centres unmarked) [Compound 176], the “mean geometric MIC, Vancomycin Sensitive Strains” value in experiment [1] is 0.13 mg/L. Further, the “mean geometric MIC, Vancomycin Resistant Strains” value in experiment [2] amounted to 1.2 mg/L. Also, the MIC in experiment [3] was 8 mg/L (≈ 4.49 µM); in experiment [4] it was 0.125 mg/L (≈ 0.0702 µM); in experiment [5] it was 4 mg/L (≈ 2.25 µM); in [6] it was 2 mg/L (≈ 1.12 µM); in [7] it was 2 mg/L (≈ 1.12 µM); in experiment [8] it was 0.5 mg/L (≈ 0.281 µM). Besides, the MIC in experiment [9] is 2 mg/L (≈ 1.12 µM); in experiment [10] it was 1 mg/L (≈ 0.562 µM); in experiment [11], 1 mg/L (≈ 0.562 µM); in experiment [12], 2 mg/L (≈ 1.12 µM); in experiment [13], 2 mg/L (≈ 1.12 µM); in [14], not above 0.06 mg/L. The MIC came out at 1 mg/L (≈ 0.562 µM) in experiment [15]; 2 mg/L (≈ 1.12 µM) in [16]; 0.5 mg/L (≈ 0.281 µM) in experiment [17]; 2 mg/L (≈ 1.12 µM) in [18]; 1 mg/L (≈ 0.562 µM) in experiment [19]; 2 mg/L (≈ 1.12 µM) in experiment [20].

Regarding `CNC(CC(C)C)C(=O)NC1C(=O)NC(CC(N)=O)C(=O)NC2C(=O)NC3C(=O)NC(C(=O)NC(C(=O)O)c4cc(O)cc(O)c4-c4cc3ccc4O)C(OC3CC(C)(N)C(O)C(C)O3)c3ccc(c(Cl)c3)Oc3cc2cc(c3OC2OC(CO)C(O)C(O)C2OC2CC(C)(NCCCCCCCCOc3ccc(-c4ccccc4)cc3)C(O)C(C)O2)Oc2ccc(cc2Cl)C1O` (centres unmarked) [Compound 201], the “mean geometric MIC, Vancomycin Sensitive Strains” value in experiment [1] was determined as 0.44 mg/L. In addition, the “mean geometric MIC, Vancomycin Resistant Strains” value in experiment [2] was 1.2 mg/L. Also, the MIC in experiment [3] is 32 mg/L (≈ 17.1 µM); in experiment [4] it was 1 mg/L (≈ 0.534 µM); in experiment [21], not above 0.06 mg/L; in [5], 8 mg/L (≈ 4.27 µM); in experiment [6], 0.5 mg/L (≈ 0.267 µM); in [7] it was 8 mg/L (≈ 4.27 µM). Moreover, the MIC in [8] was 4 mg/L (≈ 2.14 µM); in [9], 8 mg/L (≈ 4.27 µM); in experiment [22], 2 mg/L (≈ 1.07 µM); in experiment [11], 4 mg/L (≈ 2.14 µM); in experiment [12] it was 4 mg/L (≈ 2.14 µM); in experiment [13], 4 mg/L (≈ 2.14 µM). Besides, the MIC in experiment [14] is 0.5 mg/L (≈ 0.267 µM); in [15] it was 4 mg/L (≈ 2.14 µM); in [16], 8 mg/L (≈ 4.27 µM); in [17], 8 mg/L (≈ 4.27 µM); in experiment [18], 4 mg/L (≈ 2.14 µM); in [23], not above 0.06 mg/L. In addition, the MIC in experiment [20] was found to be 8 mg/L (≈ 4.27 µM).

For the molecule `CNC(CC(C)C)C(=O)NC1C(=O)NC(CC(N)=O)C(=O)NC2C(=O)NC3C(=O)NC(C(=O)NC(C(=O)O)c4cc(O)cc(O)c4-c4cc3ccc4O)C(OC3CC(C)(N)C(O)C(C)O3)c3ccc(c(Cl)c3)Oc3cc2cc(c3OC2OC(CO)C(O)C(O)C2OC2CC(C)(NCCCCC3CCCCC3)C(O)C(C)O2)Oc2ccc(cc2Cl)C1O` (centres unmarked) [Compound 205], the “mean geometric MIC, Vancomycin Sensitive Strains” value in [1] is 0.036 mg/L. Also, in [2], the “mean geometric MIC, Vancomycin Resistant Strains” value came to 1 mg/L. Moreover, the MIC in [3] was 16 mg/L (≈ 9.24 µM); in experiment [4], 0.25 mg/L (≈ 0.144 µM); in [21], not above 0.06 mg/L; in experiment [5], 1 mg/L (≈ 0.578 µM); in experiment [6] it was 0.5 mg/L (≈ 0.289 µM); in [7], 1 mg/L (≈ 0.578 µM). For the same molecule, the MIC in experiment [9] was 1 mg/L (≈ 0.578 µM); in [22], not above 0.06 mg/L; in experiment [10] it was 0.5 mg/L (≈ 0.289 µM); in experiment [11], 0.5 mg/L (≈ 0.289 µM); in experiment [12], 2 mg/L (≈ 1.16 µM); in [13], 0.5 mg/L (≈ 0.289 µM). Also, the MIC in experiment [14] is not above 0.06 mg/L; in [15], 0.5 mg/L (≈ 0.289 µM); in [16] it was 1 mg/L (≈ 0.578 µM); in [17], 0.5 mg/L (≈ 0.289 µM); in [18], 0.5 mg/L (≈ 0.289 µM); in experiment [23], not above 0.06 mg/L. The MIC in experiment [19] and in experiment [20] was 0.5 mg/L (≈ 0.289 µM) throughout.

Turning to `CNC(CC(C)C)C(=O)NC1C(=O)NC(CC(N)=O)C(=O)NC2C(=O)NC3C(=O)NC(C(=O)NC(C(=O)O)c4cc(O)cc(O)c4-c4cc3ccc4O)C(OC3CC(C)(N)C(O)C(C)O3)c3ccc(c(Cl)c3)Oc3cc2cc(c3OC2OC(CO)C(O)C(O)C2OC2CC(C)(NCc3ccc(-c4ccccc4[N+](=O)[O-])c([N+](=O)[O-])c3)C(O)C(C)O2)Oc2ccc(cc2Cl)C1O` (centres unmarked) [Compound 213], the “mean geometric MIC, Vancomycin Sensitive Strains” value in experiment [1] is 0.55 mg/L. Further, in [2], the “mean geometric MIC, Vancomycin Resistant Strains” value stood at 1.0 mg/L. The MIC is 32 mg/L (≈ 17.3 µM) in experiment [3]; not above 0.06 mg/L in [4]; not above 0.06 mg/L in [21]; 0.5 mg/L (≈ 0.27 µM) in experiment [5]; 0.125 mg/L (≈ 0.0676 µM) in [6]; 2 mg/L (≈ 1.08 µM) in experiment [7]. Moreover, the MIC in [8] was 0.5 mg/L (≈ 0.27 µM); in experiment [9], 2 mg/L (≈ 1.08 µM); in experiment [22], not above 0.06 mg/L; in experiment [11] it was not above 0.06 mg/L; in experiment [12], not above 0.06 mg/L; in [13], not above 0.06 mg/L. For the same molecule, the MIC in [14], in [15], in experiment [16], in experiment [17], in experiment [18] and in experiment [19] was not above 0.06 mg/L each time. The MIC in experiment [20] was not above 0.06 mg/L.

In the case of `CNC(CC(C)C)C(=O)NC1C(=O)NC(CC(N)=O)C(=O)NC2C(=O)NC3C(=O)NC(C(=O)NC(C(=O)O)c4cc(O)cc(O)c4-c4cc3ccc4O)C(OC3CC(C)(N)C(O)C(C)O3)c3ccc(c(Cl)c3)Oc3cc2cc(c3OC2OC(CO)C(O)C(O)C2OC2CC(C)(NCc3ccc(-c4ccc(C#N)cc4)cc3)C(O)C(C)O2)Oc2ccc(cc2Cl)C1O` (centres unmarked) [Compound 231], the “mean geometric MIC, Vancomycin Sensitive Strains” value in experiment [1] worked out at 0.11 mg/L. In experiment [2], the “mean geometric MIC, Vancomycin Resistant Strains” value was found to be 1.7 mg/L. Besides, the MIC in experiment [3] is 32 mg/L (≈ 17.9 µM); in experiment [4] it was not above 0.06 mg/L; in [21] it was not above 0.06 mg/L; in [5], not above 0.06 mg/L; in [6] it was not above 0.06 mg/L; in experiment [7], 0.5 mg/L (≈ 0.28 µM). Besides, the MIC was 0.5 mg/L (≈ 0.28 µM) in experiment [9]; not above 0.06 mg/L in experiment [22]; not above 0.06 mg/L in experiment [11]; not above 0.06 mg/L in [13]; not above 0.06 mg/L in experiment [14]; not above 0.06 mg/L in experiment [15]. Also, the MIC in experiment [16], in [17], in experiment [18], in experiment [23], in [19] and in experiment [20] was not above 0.06 mg/L each time.
